Patent US20220184099A1, “METHODS OF USING OBETICHOLIC ACID” (Intercept Pharmaceuticals, Inc., priority 2018, published 2022)

How the values were obtained:
[1] = Plasma PK of total OCA (AUC0-24 h), serial sampling on Day 1 and Day 28 of dosing; format: in vivo, human
Procedure: (§1) To evaluate safety, the PK and PD of OCA administered at 10 mg/day or 25 mg/day in subjects with compensated cirrhosis due to NASH was compared to healthy controls in a randomized, double blind, single center, Phase 3 study. Sixteen subjects with cirrhosis due to NASH and 8 healthy, age- and weight-matched, subjects were randomized in a 1:1 ratio to QD OCA 10 mg or OCA 25 mg for 28 days, according to FIG. 1 and Table 1. Extensive serial PK sampling over a 24-hour period was performed on Day 1 and Day 28 of dosing.

[2] = Albumin, creatinine, platelets and INR levels in subjects of the clinical study; format: in vivo, human; details: for Albumin, % Change at Day 28 / Albumin, Day 28 / Creatinine, % Change at Day 28 / Creatinine, Day 28 / Platelets, % Change at Day 28 / Platelets, Day 28: median
Procedure: as §1

[3] = Liver biochemistry (ALT, AST, GGT, ALP, bilirubin) during 28 days of QD OCA; format: in vivo, human
Procedure: as §1

FXR = target: T1, FXR (Homo sapiens, UniProt Q96RI1); test: PD markers of FXR activation (C4, FGF-19) during 28 days of QD OCA; format: in vivo
T1 construct: FGF-19 released from gut enterocytes (in response to FXR agonist) into portal circulation down regulates endogenous bile acid synthesis in the liver; endogenous in cells; host or cells: human study subjects in vivo (gut enterocytes, liver)
T1 sequence (Q96RI1 1-486): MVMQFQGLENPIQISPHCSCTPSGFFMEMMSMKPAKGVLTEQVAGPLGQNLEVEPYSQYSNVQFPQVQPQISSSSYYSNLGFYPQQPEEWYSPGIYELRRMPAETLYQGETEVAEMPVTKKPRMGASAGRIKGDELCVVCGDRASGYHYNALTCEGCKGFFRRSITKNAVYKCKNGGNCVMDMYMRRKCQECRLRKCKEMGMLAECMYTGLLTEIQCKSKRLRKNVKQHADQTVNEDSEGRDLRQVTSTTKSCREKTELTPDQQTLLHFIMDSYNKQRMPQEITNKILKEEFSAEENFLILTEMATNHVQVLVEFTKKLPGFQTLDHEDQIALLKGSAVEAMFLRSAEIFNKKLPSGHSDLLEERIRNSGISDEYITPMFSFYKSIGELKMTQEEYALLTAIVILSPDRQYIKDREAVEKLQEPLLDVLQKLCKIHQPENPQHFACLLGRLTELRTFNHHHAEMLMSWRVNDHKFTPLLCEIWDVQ
Excerpt: In one aspect, obeticholic acid may mediate its action primarily via FXR agonism, wherein FGF-19 released from gut enterocytes (in response to FXR agonist) into portal circulation down regulates endogenous bile acid synthesis in the liver. The present disclosure comprehends a method of measuring FXR agonist activity by, for example, measuring release of FGF-19 into the bloodstream or circulation of a patient administered with OCA. Levels of FGF-19 may be measured by methods known in the art, such as those described herein.
In some embodiments, the plasma levels of FGF-19, a marker of FXR activation, are determined using a qualified method and a validated method using an enzyme-linked immunosorbent assay (ELISA) method. The plasma concentrations of FGF-19 may be quantitated at predose and after administration of dose.
In some examples, a monoclonal antibody specific for FGF-19 is pre-coated onto a microplate. Standards, quality controls and samples are pipetted into the wells and any FGF-19 present is bound by the immobilized antibody. After washing away any unbound substances, an enzyme-linked polyclonal antibody specific for FGF-19 is added to the wells. Following a wash to remove any unbound antibody-enzyme reagent, a substrate solution is added to the wells and color develops in the proportion to the amount of FGF-19 bound in the initial step. The color development is stopped and the intensity of the color is measured. The calibration range of the method is 15.625 pg/ml to 1000 pg/ml for FGF-19 using a 100 μl aliquot of standard curve, quality control and sample. In some embodiments, no minimum required dilution is used. In other embodiments, samples may be subjected to a 3× minimum required dilution.
To evaluate safety, the PK and PD of OCA administered at 10 mg/day or 25 mg/day in subjects with compensated cirrhosis due to NASH was compared to healthy controls in a randomized, double blind, single center, Phase 3 study. […]

[4] = Adverse events, safety and tolerability of OCA 10 mg or 25 mg QD for 28 days; format: in vivo, human; details: for Total adverse events (AEs): both doses
Procedure: as §1

[5] = both dose groups, throughout the 28-day study

## CC[C@H]1[C@@H](O)[C@@H]2[C@H](CC[C@]3(C)[C@@H]([C@H](C)CCC(=O)O)CC[C@@H]23)[C@@]2(C)CC[C@@H](O)C[C@@H]12 [OCA, 3α,7α-dihydroxy-6α-ethyl-5β-cholan-24-oic acid]
[1]; daily OCA 10 mg and 25 mg
  Plasma exposure of total OCA in subjects with cirrhosis due to NASH relative to healthy subjects: higher
[1]; despite increased systemic exposure, FIGS. 11A and 11B
  Hepatic exposure of OCA: remain nominal
[2]; 28 days
  Albumin levels: No changes
  INR: No changes
  Platelet levels: No changes
[2]; Healthy, 10 mg OCA (n = 4)
  Albumin, % Change at Day 28: 2.3%
  Albumin, Day 28: 4.5 g/dL
  Creatinine, % Change at Day 28: −1.6%
  Creatinine, Day 28: 0.96 mg/dL
  Platelets, % Change at Day 28: 0.4%
  Platelets, Day 28: 262.0 10^9/L
[2]; Healthy, 25 mg OCA (n = 4)
  Albumin, % Change at Day 28: −4.0%
  Albumin, Day 28: 4.0 g/dL
  Creatinine, % Change at Day 28: 8.3%
  Creatinine, Day 28: 0.78 mg/dL
  Platelets, % Change at Day 28: 4.0%
  Platelets, Day 28: 261.0 10^9/L
[2]; NASH CP-A, 10 mg OCA (n = 8)
  Albumin, % Change at Day 28: −3.9%
  Albumin, Day 28: 4.0 g/dL
  Creatinine, % Change at Day 28: 4.3%
  Creatinine, Day 28: 0.88 mg/dL
  Platelets, % Change at Day 28: −9.7%
  Platelets, Day 28: 101.5 10^9/L
[2]; NASH CP-A, 25 mg OCA (n = 8)
  Albumin, % Change at Day 28: −6.5%
  Albumin, Day 28: 4.0 g/dL
  Creatinine, % Change at Day 28: 0.8%
  Creatinine, Day 28: 0.87 mg/dL
  Platelets, % Change at Day 28: −2.0%
  Platelets, Day 28: 155.5 10^9/L
[3]; 10 mg and 25 mg groups, 28 days
  Bilirubin levels (direct and total): no apparent trend
[3]; OCA 25 mg group, mostly driven by subjects with elevated ALP at Baseline
  ALP: moderate increase
[3]; [5]
  ALT: improvements
  AST: improvements
  GGT: improvements
FXR; both doses of OCA
  PD effects: favorable PD effects
FXR; both dosing groups
  C4: suppression
  FGF-19: activation
[4]; NASH, OCA 25 mg, advanced disease with portal hypertension and history of hyperbilirubinemia, discontinued on Day 25
  Subjects who discontinued treatment due to elevated bilirubin levels: One
[4]; all subjects
  Liver-related adverse events reported: one
  Serious adverse events: No serious adverse events were observed
[4]; all subjects, no trend for liver related AEs
  Severity of all AEs: mild or moderate
[4]; daily OCA at 10 mg and 25 mg
  Overall safety and tolerability: generally safe and well tolerated
[4]; healthy subjects on 10 mg
  Subjects experiencing adverse events: 3 subjects
[4]; healthy subjects on 25 mg
  Subjects experiencing adverse events: 2 subjects
[4]; healthy subjects
  Total adverse events (AEs): 5 AEs
[4]; healthy subjects, both doses (of 8)
  Subjects experiencing adverse events: 5 subjects
[4]; subjects with NASH on 10 mg
  Subjects experiencing adverse events: 2 subjects
[4]; subjects with NASH on 25 mg
  Subjects experiencing adverse events: 4 subjects
[4]; subjects with NASH
  Total adverse events (AEs): 13 AEs
[4]; subjects with NASH, both doses (of 16)
  Subjects experiencing adverse events: Six
[4]; subjects with NASH, no relationship to dose
  Subjects reporting mild or moderate pruritus: Four
[4]; the one NASH subject on 25 mg who discontinued
  Time for bilirubin levels to return to normal after discontinuation of OCA: 1 days
